# Results from patent US9779901B2, “High temperature material compositions for high temperature thermal cutoff devices” (Therm-O-Disc, Incorporated, priority 2008, dated 2017).
# Like-named read-outs stand apart in the source and are kept apart here.
# How the values were obtained:
# [1] = 20° C.; cited from earlier work
# [2] = estimated melting point temperature ranges of candidate organic compounds (Table 2); some compounds have several values, partly in parentheses, because analytic techniques differ; cited from earlier work
Compound,Vapor Pressure [1],Melting Point [°C],Melting Point [2]
"OCC(CO)(CO)CO [pentaerythritol, 2,2-Bis(hydroxymethyl)-1,3-propanediol]",<1 mmHG (20° C.),,
O=c1ccc2ncc[nH]c-2c1 [Example 90],,252 to 254,252-254° ° C.
Nc1nc(N)nc(Cc2ccccc2)n1 [Example 39],,245,245° ° C.
O=c1cc2[nH]c3ccccc3oc-2cc1=O [Example 185],,264 to 265,264-265° ° C.
c1nc2nc3nc[nH]cc3n2n1 [Example 77],,250,250° ° C.
c1ccc2c(c1)[nH]c1ccc3ccncc3c12 [Example 132],,259 to 260,259-260° ° C.
c1ccc2c(c1)-c1ccccc1C2C1c2ccccc2-c2ccccc21 [Example 56],,246,246° ° C.
O=c1[nH]c(=S)oc2ccccc12 [Example 98],,253,253° ° C.
O=c1c(=C2Cc3cccc4cccc2c34)c2cccc3cccc1c32 [Example 137],,259 to 260,259-260° ° C.
N#Cc1ccc2c(=O)c3ccccc3sc2c1 [Example 110],,255 to 256,255-256° ° C.
Cc1ccc2cnc(O)cc2c1 [Example 204],,265,265° ° C.
COc1cc(CCN(C)C)ccc1O [Example 129],,258 to 260,258-260° ° C.
c1ccc(-c2n[nH]c(-c3ccccc3)c2-c2ccccc2)cc1 [Example 189],,265,265° ° C.
O=c1ccc2c(O)cccc2o1 [Example 31],,244 to 247,244-247° ° C.
c1ccc(-c2ccnc(-c3cc(-c4ccccc4)cc(-c4cc(-c5ccccc5)ccn4)n3)c2)cc1 [Example 122],,257 to 258,257-258° ° C.
CC(=O)N[C@H]1[C@@H](OCc2ccccc2)O[C@@H]2CO[C@H](c3ccccc3)O[C@H]2[C@@H]1O [Example 176],,263 to 264,263-264° ° C.
CN1CC2CC(NC(=O)c3n[nH]c4ccccc34)CC(C1)N2C (centres unmarked) [Example 118],,256 to 257,256-257° ° C.

Compound,Vapor Pressure [1],Melting Point [°C],Melting Point [2]
c1cnc2[nH]cnc2n1 [Example 128],,258 to 259,258-259° ° C.
Oc1cc2ccccc2c2cc3ccc4ccccc4c3cc12 [Example 130],,258 to 259,258-259° ° C.
Nc1ccc2ccccc2c1-c1c(N)ccc2ccccc12 [Example 25],,242.5 to 243,242.5-243° ° C.
O=C1NC(=O)C2(CCC(O)C2)c2ccncc21 (centres unmarked) [Example 8],,240 to 243,240-243° ° C.
NC(=O)C1c2ccccc2-c2ccccc21 [Example 86],,251,251° ° C.
O=C1C(=O)c2cc3ccccc3cc2-c2ccccc21 [Example 143],,260 to 262,260-262° ° C.
CCCCCCCCn1cnc2c(=S)nc[nH]c21 [Example 188],,264 to 266,264-266° ° C.
C(#Cc1c2ccccc2c(C#Cc2ccccc2)c2ccccc12)c1ccccc1 [Example 88],,251 to 253,251-253° ° C.
NC(=O)C(CC(C(N)=O)C(N)=O)C(N)=O [Example 168],,263 to 265,263-265° ° C.
c1ccc(-c2nc3ncncc3[nH]2)cc1 [Example 150],,261 to 262,261-262° ° C.
O=C1N=C(NO)c2ccccc21 [Example 182],,264 to 266,264-266° ° C.
CC(=O)N[C@@H]1CCC[C@H](NC(C)=O)C1 [Example 166],,262 to 264,262-264° ° C.
NC(=O)c1c2c(nc3ccccc13)CCCC2 [Example 191],,265 to 267,265-267° ° C.
C1=CCC2=C(C1)CC1=C(C2)CC2=C(CC=CC2)C1 [Example 4],,241 to 242,241-242° ° C.
O=c1[nH][nH]c2ccccc12 [Example 44],,245 to 247,245-247° ° C.
CC(C)(C)C1=CC(=C2C=C(C(C)(C)C)C(=O)C(C(C)(C)C)=C2)C=C(C(C)(C)C)C1=O [Example 22],,243 to 245,243-245° ° C.
